Measurements reported in paper PMC2641037 (Pharmacogenetics and genomics, 2009).
Structures can show the parent of a compound that is named as a salt. Where two headings read alike, the source gives them in different places.

Tests used:
Caco-2 cells = settings: for Papp±SD of montelukast (% of control) / effect on permeability of montelukast: 125 µM competitor; for Papp±SD of montelukast (% of control) / montelukast permeability, % of control: Caco-2; for Papp±SD of montelukast (% of control): control without additional drug; for effect on permeability of montelukast: Caco-2, p<0.05
OATP2B1 [1] = target: T1, OATP2B1 (Homo sapiens, UniProt O94956); test: Permeability in OATP2B1 expressing MDCKII cell line; settings: basolateral → apical, pH 7.5, 1 h 37°C
T1 sequence (O94956 1-709): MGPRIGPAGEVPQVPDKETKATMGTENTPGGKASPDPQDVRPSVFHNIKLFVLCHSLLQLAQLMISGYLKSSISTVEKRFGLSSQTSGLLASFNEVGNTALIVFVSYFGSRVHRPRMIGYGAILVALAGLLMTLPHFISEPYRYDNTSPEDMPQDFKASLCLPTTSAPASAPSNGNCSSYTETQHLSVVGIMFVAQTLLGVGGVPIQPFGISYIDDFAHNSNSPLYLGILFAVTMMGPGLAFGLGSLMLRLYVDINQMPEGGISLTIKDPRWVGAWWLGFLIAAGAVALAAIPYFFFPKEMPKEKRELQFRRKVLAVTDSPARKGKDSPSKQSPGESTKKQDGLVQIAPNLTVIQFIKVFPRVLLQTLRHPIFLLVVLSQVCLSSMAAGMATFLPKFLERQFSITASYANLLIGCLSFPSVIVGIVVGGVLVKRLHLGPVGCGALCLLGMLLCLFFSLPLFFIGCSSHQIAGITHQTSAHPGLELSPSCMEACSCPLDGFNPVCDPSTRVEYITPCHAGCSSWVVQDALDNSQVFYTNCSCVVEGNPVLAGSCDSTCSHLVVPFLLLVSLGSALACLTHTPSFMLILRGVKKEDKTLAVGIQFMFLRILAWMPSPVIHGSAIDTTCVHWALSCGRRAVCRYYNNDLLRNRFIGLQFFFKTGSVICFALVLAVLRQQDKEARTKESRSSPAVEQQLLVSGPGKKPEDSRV

MDR1 = MDR1 (Homo sapiens, UniProt P08183); test: ATP consumption by membrane preparations containing MDR1; assay type: biochemical; settings: data not shown
Chain of MDR1 (P08183 whole entry, species assumed): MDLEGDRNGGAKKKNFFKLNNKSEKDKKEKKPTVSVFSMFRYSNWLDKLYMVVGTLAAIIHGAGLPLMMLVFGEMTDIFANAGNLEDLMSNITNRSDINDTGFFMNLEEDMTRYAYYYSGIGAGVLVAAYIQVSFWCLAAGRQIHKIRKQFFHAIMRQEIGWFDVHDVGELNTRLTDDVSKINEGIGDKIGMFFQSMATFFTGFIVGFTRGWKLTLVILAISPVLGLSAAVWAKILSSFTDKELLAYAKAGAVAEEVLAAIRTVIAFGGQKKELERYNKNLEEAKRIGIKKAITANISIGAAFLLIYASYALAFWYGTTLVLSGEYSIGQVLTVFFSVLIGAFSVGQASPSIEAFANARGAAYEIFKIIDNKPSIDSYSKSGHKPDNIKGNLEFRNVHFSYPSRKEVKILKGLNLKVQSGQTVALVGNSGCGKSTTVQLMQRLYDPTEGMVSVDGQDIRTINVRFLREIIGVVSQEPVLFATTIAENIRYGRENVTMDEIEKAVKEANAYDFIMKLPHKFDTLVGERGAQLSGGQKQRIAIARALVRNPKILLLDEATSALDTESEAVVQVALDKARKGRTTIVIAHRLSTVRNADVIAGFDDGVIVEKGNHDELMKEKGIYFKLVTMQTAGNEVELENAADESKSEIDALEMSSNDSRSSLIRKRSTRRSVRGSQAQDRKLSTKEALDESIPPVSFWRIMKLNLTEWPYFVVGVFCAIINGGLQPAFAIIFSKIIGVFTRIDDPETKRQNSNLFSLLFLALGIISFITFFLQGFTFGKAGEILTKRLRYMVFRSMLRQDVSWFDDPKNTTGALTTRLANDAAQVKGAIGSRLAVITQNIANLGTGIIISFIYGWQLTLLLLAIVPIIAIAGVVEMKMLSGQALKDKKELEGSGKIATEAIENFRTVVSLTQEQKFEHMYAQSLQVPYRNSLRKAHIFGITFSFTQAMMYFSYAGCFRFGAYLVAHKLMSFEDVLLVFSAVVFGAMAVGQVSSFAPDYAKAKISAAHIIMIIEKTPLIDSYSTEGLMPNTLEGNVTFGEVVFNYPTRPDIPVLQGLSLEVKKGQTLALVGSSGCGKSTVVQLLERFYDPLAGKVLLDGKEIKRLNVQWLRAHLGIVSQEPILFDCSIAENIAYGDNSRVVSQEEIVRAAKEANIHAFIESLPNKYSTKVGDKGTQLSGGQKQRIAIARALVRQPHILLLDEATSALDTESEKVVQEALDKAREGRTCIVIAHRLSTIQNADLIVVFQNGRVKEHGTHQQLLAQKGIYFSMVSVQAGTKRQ

[2] = weak acid; cited from earlier work
[3] = cited from earlier work
[4] = can approach; cited from earlier work
OATP2B1 [5] = settings: up; substrate dependent; cited from earlier work

| Structure (SMILES) | Papp±SD of montelukast (% of control) (Caco-2 cells) | effect on permeability of montelukast (Caco-2 cells) | also measured |
| --- | --- | --- | --- |
| C[C@H](CCC(=O)O)[C@H]1CC[C@H]2[C@@H]3[C@H](O)C[C@@H]4C[C@H](O)CC[C@]4(C)[C@H]3CC[C@]12C [Chenodeoxycholic acid, chenodeoxycholic acid, sodium salt] | 90±10 % of control | – | – |
| CN/C(=N/CCSCc1nc[nH]c1C)NC#N [Cimetidine, cimetidine] | 120±10 % of control | enhance permeability | – |
| C[C@H](CCC(=O)O)[C@H]1CC[C@H]2[C@@H]3CC[C@@H]4C[C@H](O)CC[C@]4(C)[C@H]3C[C@H](O)[C@]12C [Deoxycholic acid, deoxycholic acid, sodium salt] | 110±10 % of control | – | – |
| C[C@]12CC[C@@H]3c4ccc(OS(=O)(=O)[O-])cc4CC[C@H]3[C@@H]1CCC2=O.[Na+] [Estrone 3-sulfate, estrone 3-sulfate, sodium salt] | – | – | enhancement of permeability in OATP2B1 expressing cell line relative to control (OATP2B1 [1]): 280±40% |
| CC[C@H](C)C(=O)O[C@H]1C[C@H](O)C=C2C=C[C@H](C)[C@H](CC[C@@H](O)C[C@@H](O)CC(=O)O)[C@H]21 [Pravastatin, pravastatin] | 83±8 % of control | cis-inhibit permeability | – |
| O=C1OC(c2ccc(O)c(S(=O)(=O)O)c2)(c2ccc(O)c(S(=O)(=O)O)c2)c2c(Br)c(Br)c(Br)c(Br)c21 [Sulfobromophthalein, sulfobromophthalein] | 72±7 % of control | cis-inhibit permeability | – |
| C[C@H](CCC(=O)NCCS(=O)(=O)O)[C@H]1CC[C@H]2[C@@H]3[C@H](O)C[C@@H]4C[C@H](O)CC[C@]4(C)[C@H]3C[C@H](O)[C@]12C [Taurocholic acid, taurocholic acid, sodium salt] | 84±9 % of control | cis-inhibit permeability | – |
| CC(C)(O)c1ccccc1CC[C@@H](SCC1(CC(=O)O)CC1)c1cccc(/C=C/c2ccc3ccc(Cl)cc3n2)c1 [montelukast, Montelukast] | – | – | stimulation of ATP consumption by MDR1 membrane preparations (MDR1): does not stimulate ATP consumption; pKa [2]: 5.7; binding to plasma albumin [3]: highly bound; poor response rate [4]: 60 to 70%; permeability in MDCKII-OATP2B1, % of control (parental MDCKII) (OATP2B1 [1]): 140±20 % of control |
| CC(=O)[C@H]1CC[C@H]2[C@@H]3CCC4=CC(=O)CC[C@]4(C)[C@H]3CC[C@]12C [progesterone] | – | – | montelukast permeability, % of control (Caco-2 cells; 5 µM progesterone in donor reservoir): 150±10 % of control; montelukast permeability, % of control (Caco-2 cells; 15 µM progesterone in donor reservoir): 140±10 % of control; montelukast permeability, % of control (Caco-2 cells; 30 µM progesterone in donor reservoir): 160±10 % of control; allosteric activation of OATP2B1 transport of estrone-3-sulfate (OATP2B1 [5]): up to 300% |

More lines, main results first:

| Papp±SD of montelukast (% of control) (Caco-2 cells) | effect on permeability of montelukast (Caco-2 cells) | Structure (SMILES) | also measured |
| --- | --- | --- | --- |
| 100±10 % of control | – | CCCCNc1cc(C(=O)O)cc(S(N)(=O)=O)c1Oc1ccccc1 [Bumetanide, bumetanide] | – |
| 100±20 % of control | – | O=S(=O)(O)c1cc(N=C=S)ccc1C=Cc1ccc(N=C=S)cc1S(=O)(=O)O [DIDS, 4,4'-Diisothiocyanostilbene-2,2'-disulfonic acid] | – |
| 100±10 % of control | – | C=C(CC)C(=O)c1ccc(OCC(=O)O)c(Cl)c1Cl [Ethacrynic acid, ethacrynic acid] | – |
| 130±20 % of control | enhance permeability | Nc1nc2ncc(CNc3ccc(C(=O)N[C@@H](CCC(=O)O)C(=O)O)cc3)nc2c(=O)[nH]1 [Folic acid, folic acid] | – |
| 95±8 % of control | – | NS(=O)(=O)c1cc(C(=O)O)c(NCc2ccco2)cc1Cl [Furosemide, furosemide] | – |
| 110±10 % of control | – | O=c1c(-c2ccc(O)cc2)coc2cc(O)cc(O)c12 [Genistein, genistein] | – |
| 130±10 % of control | enhance permeability | CN(C)C(=O)CCSC(SCCC(=O)O)c1cccc(/C=C/c2ccc3ccc(Cl)cc3n2)c1 (stereo not drawn) [MK571, MK571, sodium salt] | – |
| 90±10 % of control | – | CCCN(CCC)S(=O)(=O)c1ccc(C(=O)O)cc1 [Probenecid, probenecid] | – |
